biological target: PHD2 (Homo sapiens, UniProt Q9GZT9); assay: Assay for HIF-PHD2 catalytic activity (time-resolved fluorescence, VHL complex detection); type: biochemical; settings: FLAG-tagged full length PHD2; 0.2 μM 2-oxoglutarate, 0.5 μM HIF-1α peptide; read-out: PHD2 Activity (PHD2 binding activity expressed as IC50)
Procedure: Assay for HIF-PHD2 Catalytic Activity
After a 30 min preincubation at room temperature, the enzymatic reactions were initiated by the addition of 4 μL of substrates (final concentrations of 0.2 μM 2-oxoglutarate and 0.5 μM HIF-1α peptide biotinyl-DLDLEMLAPYIPMDDDFQL). After 2 hr at room temperature, the reactions were terminated and signals were developed by the addition of a 25 μL quench/detection mix to a final concentration of 1 mM ortho-phenanthroline, 0.1 mM EDTA, 0.5 nM anti-(His)6 LANCE reagent (Perkin-Elmer Life Sciences), 100 nM AF647-labeled streptavidin (Invitrogen), and 2 μg/ml (His)6-VHL complex (S. Tan (2001) Protein Expr. Purif. 21, 224-234). The ratio of time resolved fluorescence signals at 665 and 620 nm was determined, and percent inhibition was calculated relative to an uninhibited control sample run in parallel.

Sequence of PHD2 (Q9GZT9 whole entry): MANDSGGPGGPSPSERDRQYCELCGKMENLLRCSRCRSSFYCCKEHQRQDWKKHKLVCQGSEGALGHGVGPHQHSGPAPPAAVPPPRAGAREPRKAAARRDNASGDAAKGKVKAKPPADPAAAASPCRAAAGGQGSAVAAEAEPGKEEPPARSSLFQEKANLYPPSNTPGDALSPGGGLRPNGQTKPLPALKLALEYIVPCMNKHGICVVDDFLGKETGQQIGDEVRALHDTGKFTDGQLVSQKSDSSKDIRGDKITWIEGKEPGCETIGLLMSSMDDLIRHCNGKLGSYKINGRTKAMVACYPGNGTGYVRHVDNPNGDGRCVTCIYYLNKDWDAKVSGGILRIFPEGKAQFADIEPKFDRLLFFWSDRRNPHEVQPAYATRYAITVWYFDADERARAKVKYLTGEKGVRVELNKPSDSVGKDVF

SMILES | IC50 [nM]
O=C(O)CN1CCC2(CC1)C(=O)N(c1ccc(-c3ccccc3)cc1)c1ncc(C(=O)O)cc12 [Example 10, 1′-biphenyl-4-yl-1-(carboxymethyl)-2′-oxo-1′,2′-dihydrospiro[piperidine-4,3′-pyrrolo[2,3-b]pyridine]-5′-carboxylic acid] | 5 to 10
Cc1cccnc1CN1CCC2(CC1)C(=O)N(c1ccc(-c3ccccc3)cc1)c1nc(C(=O)O)ccc12 [Example 6, 1′-biphenyl-4-yl-1-[(3-methylpyridin-2-yl)methyl]-2′-oxo-1′,2′-dihydrospiro[piperidine-4,3′-pyrrolo[2,3-b]pyridine]-6′-carboxylic acid] | ≤ 5
O=C(O)CN1CCC2(CC1)C(=O)N(c1ccc(-c3ccccc3)cc1)c1ncccc12 [Example 9, (1′-biphenyl-4-yl-2′-oxo-1′,2′-dihydro-1H-spiro[piperidine-4,3′-pyrrolo[2,3-b]pyridin]-1-yl)acetic acid] | 10 to 50
N#Cc1cnc2c(c1)C1(CCN(CC(=O)O)CC1)C(=O)N2c1ccc(-c2ccccc2)cc1 [Example 8, (1′-biphenyl-4-yl-5′-cyano-2′-oxo-1′,2′-dihydro-1H-spiro[piperidine-4,3′-pyrrolo[2,3-b]pyridin]-1-yl)acetic acid] | 10 to 50
O=C(O)CN1CCC2(CC1)C(=O)N(c1ccc(-c3ccccc3)cc1)c1ncc(Br)cc12 [Example 7, (1′-biphenyl-4-yl-5′-bromo-2′-oxo-1′,2′-dihydro-1H-spiro[piperidine-4,3′-pyrrolo[2,3-b]pyridin]-1-yl)acetic acid] | 10 to 50

Now from value to molecule:

IC50 [nM] | SMILES
≤ 5 | Cc1cccnc1CN1CCC2(CC1)C(=O)N(c1ccc(-c3ccccc3)cc1)c1ncc(C(=O)O)cc12 [Example 5, 1′-biphenyl-4-yl-1-[(3-methylpyridin-2-yl)methyl]-2′-oxo-1′,2′-dihydrospiro[piperidine-4,3′-pyrrolo[2,3-b]pyridine]-5′-carboxylic acid]
5 to 10 | Cc1cccnc1CN1CCC2(CC1)C(=O)N(c1ccc(-c3ccccc3)cc1)c1ncc(C#N)cc12 [Example 4, 1′-biphenyl-4-yl-1-[(3-methylpyridin-2-yl)methyl]-2′-oxo-1′,2′-dihydrospiro[piperidine-4,3′-pyrrolo[2,3-b]pyridine]-5′-carbonitrile]
≤ 5 | Cc1cccnc1CN1CCC2(CC1)C(=O)N(c1ccc(-c3ccccc3)cc1)c1nc(C#N)ccc12 [Example 3, 1′-biphenyl-4-yl-1-[(3-methylpyridin-2-yl)methyl]-2′-oxo-1′,2′-dihydrospiro[piperidine-4,3′-pyrrolo[2,3-b]pyridine]-6′-carbonitrile]

Source: patent publication US8492398B2, “Spiroazaindoles” (Merck Sharp & Dohme Corp., priority 2008, dated 2013)
